Measured values reported in EP1708721B1, “MYOCARDIAL PERFUSION IMAGING USING ADENOSINE RECEPTOR AGONISTS” (Gilead Sciences, Inc., priority 2004, dated 2005).
In brackets after ≈: the same amount, converted by molar mass.

What was measured:
awake dogs = experiment: increase of coronary blood flow velocity (CBFv) in awake dogs, potency versus adenosine (background statement); assay type: in vivo; details: relative to adenosine
awake rats = experiment: Example 5: sympathoexcitation, heart rate, blood pressure and plasma catecholamines after i.v. bolus; assay type: in vivo
Procedure: The present study was carried out to determine whether CVT-3146, a selective A2A adenosine receptor agonist, causes sympathoexcitation. CVT-3146 (0.31µg/kg-50 µg/kg) was given as a rapid i.v. bolus to awake rats and heart rate (HR) and blood pressure (BP) were monitored. CVT-3146 caused an increase in BP and systolic pressure (SP) at lower doses while at higher doses there was a decrease in BP and SP. […] The increase in HR was evident at the lowest dose of CVT-3146 at which there was no appreciable decrease in BP. ZM241385 (30 µg/kg , N=5), an A2A receptor antagonist, attenuated the decrease in BP (CVT-3146: 14±3%, ZM: 1±1 %) and the increase in HR (CVT: 27±3%, ZM: 18±3%) caused by CVT-3146. Pretreatment with metoprolol (MET, 1 mg/kg, n=5), a beta-blocker, attenuated the increase in HR (CVT: 27±3%, MET: 15±2%), but had no effect on hypotension caused by CVT-3146. In the presence of hexamethonium (HEX, 10 mg/kg, n=5), a ganglionic blocker, the tachycardia was prevented (CVT: 27±3%, HEX: -1±2%), but BP was further reduced (CVT: -11±2%, HEX: -49±5%).

healthy volunteers = experiment: Example 3: maximum tolerated dose and safety after a single IV bolus, supine and standing; assay type: in vivo
Procedure: This Example is a study performed to evaluate (1) the maximum tolerated dose of CVT-3146 and (2) the pharmacokinetic profile of CVT-3146 in healthy volunteers, after a single IV bolus dose.
The study was performed using thirty-six healthy, non-smoking male subjects between the ages of 18 and 59 and within 15% of ideal body weight
The study was performed in phase 1, single center, double-blind, randomized, placebo-controlled, crossover, ascending dose study. Randomization was to CVT-3146 or placebo, in both supine and standing positions.
CVT-3146 was administered as an IV bolus (20 seconds) in ascending doses of […], 10, 20 and 30 µg/kg.
Subjects received either CVT-3146 or placebo on Day 1 supine, then crossover treatment on Day 2 supine. On Day 3, subjects received CVT-3146 or placebo standing, then crossover treatment on Day 4 standing.
Patient safety was monitored by ECG, laboratory assessments, and collection of vital signs and adverse events. Pharmacokinetics: • Plasma samples were drawn during supine phase (Days 1 and 2) at 0, 1, 2, 3, 4, 5, 7,10, 15, 20, 30, 45 minutes after dosing and at 1, 1.5., 2, 4, 6, 8,12 and 24 hours after dosing. Urine was collected for 24 hours for […] excretion. Pharmacodynamics: • The study evaluated the relationship of changes in heart rate to dose in both standing and supine positions and plasma concentration in the supine position.

[1] = test system: subjects (26 men, 9 women); experiment: Example 6: stress/rest SPECT myocardial perfusion imaging, adenosine versus CVT-3146; assay type: in vivo, human
Procedure: To determine the ability of CVT-3146 to produce coronary hyperemia and accurately detect CAD, 35 subjects (26 men, 9 women; 67±10 years) underwent both A and CVT-3146 stress/rest MPI, with 10.0±9.1 days between studies. […] CVT-3146 [400 mcg (n=18), 500 mcg (n=17)] was administered as an IV bolus immediately followed by a saline flush, and then a Tc-99m radiopharmaceutical [sestamibi (n=34), tetrofosmin (n=1)]. SPECT images were uniformly processed, intermixed with control studies (normal and fixed-only defects), and interpreted by three observers in a blinded fashion using a 17-segment model. Quantitative analysis was also performed using 4D MSPECT. In addition to three separate readings, a consensus interpretation was performed and then a direct, same-screen comparison of A and CVT-3146 images undertaken to determine relative differences, using 5 regions per study.

solubility in water = assay type: physicochemical
Procedure: CVT-3146 has solubility in water of about 50 micrograms/mL. Therefore, CVT-3146 can be dissolved and administered in water so long as the desired weight amount of CVT-3146 can be administered in an acceptable volume. For example, a preferred dose of about 400 micrograms can be administered in 8 mL of water. If this volume is too great for administration purposes, or if the pharmaceutical composition will be stored at other than room temperature (RT), then additional ingredients can be added to the composition to increase the solubility of CVT-3146 in the composition and/or to provide the resulting pharmaceutical composition with other improved properties such as improved stability and storage properties. Pharmaceutical compositions of this invention may include up to about 1 milligram/mL of CVT-3146. It is preferred that pharmaceutical compositions including CVT-3146 include from 50 to 250 micrograms/mL, and more preferably from 50 to 150 micrograms/mL of CVT-3146.

[2] = test system: subjects (27 men, 9 women); experiment: Example 7: pharmacologic stress myocardial perfusion imaging protocol, adverse effects and hemodynamics; assay type: in vivo, human
Excerpt: 36 subjects (27 men, 9 women; 67±10 years) were studied with two doses of CVT-3146 [400 mcg (n=18), 500 mcg (n=18)], administered as an IV bolus, as part of a pharmacologic stress myocardial perfusion imaging protocol.

[3] = severe in intensity, 20 µg/kg Standing, 4 subjects per group
[4] = direct comparison of A and CVT-3146 images, 5 regions per study
[5] = peak hemodynamic changes, mean±S.D., 400 and 500 mcg

## CNC(=O)c1cnn(-c2nc(N)c3ncn([C@@H]4O[C@H](CO)[C@@H](O)[C@H]4O)c3n2)c1 [CVT-3146, (1-{9-[(4S,2R,3R,5R)-3,4-dihydroxy-5-(hydroxymethyl)oxolan-2-yl]-6-aminopurin-2-yl}pyrazol-4-yl)-N-methylcarboxamide]
Awake dogs
  more potent than adenosine (Ado) in increasing coronary blood flow velocity (CBFv): > 100 fold
Awake rats; CVT-3146 alone
  increase in HR: 27±3%
Awake rats; CVT-3146 alone (comparison with ZM241385)
  decrease in BP: 14±3%
Awake rats; CVT-3146 alone (comparison with hexamethonium)
  BP (change): -11±2%
Healthy volunteers; IV bolus 0.1 to 30 µg/kg
  serious adverse events: no serious adverse events
Healthy volunteers; [3]
  Number of Subjects with AE: Dizziness: 1
  Number of Subjects with AE: Palpitation: 0
  Number of Subjects with AE: Syncope: 1
Healthy volunteers; severe in intensity, 30 µg/kg Supine, 4 subjects per group
  Number of Subjects with AE: Dizziness: 0
[1]; SPECT MPI, 4D MSPECT, CVT-3146 400 or 500 mcg IV bolus, A infusion
  summed scores following stress, quantitative methods of analysis: 13.6±1.6
[1]; SPECT MPI, 17-segment model, CVT-3146 400 or 500 mcg IV bolus, A infusion
  summed scores following stress, visual: 13.2±1.3
[1]; [4]
  regional concordance for ischemia extent: 86.3%
  regional concordance for ischemia severity: 83.4%
Solubility in water
  solubility: ~50 µg/mL (≈ 128 µM)
[2]; 36 subjects
  ST abnormalities developed: 7 pts
  T wave abnormalities developed: 5 pts
[2]; 400-mcg group
  Flushing: 17%
  dizziness: 11%
  dyspnea: 17%
[2]; 400 mcg dose
  mean change in HR response: 34.8%
[2]; 500-mcg group
  Flushing: 44%
  dizziness: 28%
  dyspnea: 44%
[2]; 500 mcg dose
  mean change in HR response: 44.2%
[2]; Thirty min after CVT-3146
  BP changes deviated from baseline: < 2%
  HR remained above baseline by: 8.6%
[2]; both doses, 36 subjects
  abdominal pain: 11%
  chest discomfort: 33%
  headache: 25%
[2]; either dose
  systolic BP did not fall below: ≥ 90 mmHg
[2]; exacerbation of a migraine headache, required hospitalization
  serious AE occurred: One
[2]; in vivo
  2nd or 3rd degree AV block: No 2nd or 3rd degree AV block was noted
  serious arrhythmias: no serious arrhythmias
  time of peak hemodynamic effect, diastolic BP: 8 min
  time of peak hemodynamic effect, heart rate (HR): ≤ 0.033 h
  time of peak hemodynamic effect, systolic blood pressure (BP): 4 min
[2]; [5]
  Diastolic BP, Absolute Change: -5.4±7.2 mmHg
  Diastolic BP, Relative Change: -7.9%±10.5%
  Heart Rate, Absolute Change: +21.9±10.4 beats per min
  Heart Rate, Relative Change: +36.7%+21.0%
  Systolic BP, Absolute Change: -5.9±10.7 mmHg
  Systolic BP, Relative Change: 4.1%±7.6%
[2]; share of AEs
  AEs mild to moderate: 96%
  AEs resolved within 15 min without treatment: 91%
